In US12410428B2, “RNA-guided transcriptional regulation and methods of using the same for the treatment of back pain” (University of Utah Research Foundation, priority 2018, dated 2025):

Columns and labels:
TNFR1 = assay: Human NP cell CRISPRi: TNFR1 knockdown by qRT-PCR; type: cell-based; settings: human NP cells
Description: Human NP Cell CRISPRi. […] Quantitative RT-PCR was performed to identify TNFR1 knockdown in these primary human NP cells. Additionally, flow-cytometry was performed to determine transduction efficiency in human NP cells.

[1] = tested on: TNFR1 signaling (NF-κB activity); assay: NF-κB activity assay in HEK293T cells dosed with TNF-α; type: cell-based, human; settings: 0.15 ng/mL TNF-α, 24 hours
Description: Measurement of functional effects of epigenome editing based gene downregulation. NE-κB activity assays. HEK293T cells and hADMSCs were transduced with the earlier mentioned NF-κB reporter vector and analyzed for changes in NF-κB activity in response to dosing cells with TNF-α/IL-1β (RnD systems, ProSpec). To further describe, cells expressing the NF-κB reporter were plated in white 96-well plates (HEK293T cells at 25,000 cells/well and hADMSCs at 5000 cells/well) and allowed to attach overnight. The next day cells were dosed with the appropriate amounts of inflammatory cytokines (0, […], 1, and/or 10 ng/mL of TNF-α/IL-1β) for 24 hours. At 24 hours luminescence corresponding to NF-κB activity was measured in one set of cells using the bright glo assay (Promega) and cell number was measured on another set of cells under the same treatment using the real-time glo assay (Promega). Changes in NF-κB activity were quantified as a fold change in luminescence relative to the no dose control for each cell type, with NF-κB activity normalized to cell number.

5′-AUAAGCGUCCGACACAUGAU-3′ (expressed or natural sequence) [TNFR1 gRNA 4, 82]
TNFR1 knockdown (TNFR1; with dCas9-KRAB): 55%
TNFR1 knockdown (TNFR1; with dCas9 alone): no knockdown

5′-CAGUGUUGCAACAGCGGGAC-3′ (expressed or natural sequence) [TNFR1 gRNA 1, 79]
NF-κB activity vs no dose control [1]: no significant increase in NF-κB activity
